# Experimental data published in patent publication US20250066306A1, “COMPOUNDS FOR TREATING MICROBIAL INFECTIONS, METHODS OF MAKING AND USES THEREOF” (McMaster University, priority 2023, published 2025).
# “Also recorded” adds a separate entry of the source. Read-outs that look alike come from different tables or passages of the source.
# Experiments:
# [1] = system: iPSC-derived neural progenitor cells (NPCs); conditions: earlier work; cited from earlier work
# HSV-1 [2] = conditions: ex vivo mouse model; earlier work; cited from earlier work
# [3] = system: eukaryotic initiation factor 2 (EIF2) signaling pathway; experiment: Ingenuity Pathway Analysis of differentially expressed genes; format: cell-based, human; conditions: IPA of DEG, treated vs vehicle; 10 μM
# Method: Differentially Expressed Genes (DEG) measured by comparing 2b- and Ia (compound 8)-treated NPCs vs. vehicle-treated NPCs were subjected to Ingenuity Pathway Analysis (IPA). The top 10 pathways showing the greatest statistical significance (Fisher's Exact Test p-value) are shown. Activation (+ve z-score, orange bars) or inhibition (−ve z-score, blue bars) of each pathway is a measure of experimentally determined gene expression changes reported in the literature. Data were analyzed through the use of QIAGEN Ingenuity® Pathway Analysis. The intensity of color indicates the degree of activation/inhibition. Pathways without an activity pattern are in grey. Ratios (orange square above each pathway) represent the degree of overlap between DEG and all members of a given pathway. Y-axis on the right indicates ratio values.
# Statistical significance was calculated using right-tailed Fisher Exact Probability Tests; biological pathways showing p-value<0.05 were considered statistically significant. […] IPA analyses also indicated net upregulation in the autophagy and sirtuin signaling pathways.
# HSV-1 [4] = experiment: HSV-1 DualF infection of iPSC-derived NPC monolayers, flow cytometry of EGFP/RFP; format: cell-based; conditions: for reduction of the percentage of EGFP+-RFP+ cells / anti-HSV-1 activity: 10 μM; for reduction of the percentage of EGFP+-RFP+ cells: MOI 0.1, added 2 h after infection, day 3 p.i., flow cytometry; for antiviral efficacy of ACV compared with Ia: ACV 50 μM vs Ia 10 μM; for anti-HSV-1 activity: 01SD and 9001 NPCs
# SARS-CoV2 = experiment: NIH-NIAID in vitro SARS-CoV2 viral replication assay in Calu3 cells; format: cell-based
# 01SD NPC cultures = experiment: Cytotoxicity in uninfected 01SD NPC cultures, flow cytometry with fixable viability dye; format: cell-based, human; conditions: uninfected 01SD NPCs
# HSV-1 [5] = conditions: earlier work, refs 3d, 5a; cited from earlier work
# 02SF NPCs = experiment: RNA sequencing of uninfected NPCs treated with compounds; format: cell-based, human; conditions: 10 μM, 72 hours; of 12,433 expressed genes; FDR corrected p<=0.05
# [6] = system: Calu3 (ATCC, HTB-55) cells; conditions: assessed at NIH
# HSV-1 [7] = format: cell-based; conditions: 9001 and 01SD brain organoids, fourteen-week old; compounds 10 μM, ACV 50 μM; day 3 p.i.
# [8] = system: eIF2α phosphorylated on Serine 51; experiment: Immunocytochemistry of eIF2α phosphorylated on serine 51 in NPC cultures; format: cell-based, human; conditions: 9001 NPCs; 10 μM; 24 hours; vs untreated or 7-treated
# Method: (A) NPCs derived from 9001 iPSC lines were exposed to compounds 7, Ia (compound 8), and 2b (10 μM). After 24 hours, cells were fixed and stained with an antibody that detects eIF2α phosphorylated on Serine 51 (EIF2S1). Nuclei were counterstained with Hoechst 33342, and phosphorylation was assessed by fluorescence microscopy. (B) The corrected total cell fluorescence (CTCF) was obtained by measuring EIF2S1 fluorescence in cells where a fluorescent signal could be detected and normalizing for cellular area using equation CTCF=integrated density−(cellular area×mean fluorescence of background readings) (C-D). Up-regulation of the EIF2A kinase EIF2AK3 (C) and the activated transcription factor 4 (ATF4) (D) in 2b- and Ia (compound 8)-treated NPCs. (E) Proposed mechanism of action of 2b and Ia (compound 8).
# [9] = system: fibroblasts and hepatocytes; conditions: earlier work; cited from earlier work
# [10] = earlier work, refs 5a, 5b; cited from earlier work
# HSV-1 strain 17syn+ = experiment: In vivo mouse eye HSV-1 infection (corneal scarification), plaque assay of eye swabs; design: species or system ND4 Swiss mice
# Text: ND4 swiss mice were infected by corneal scarification with 1×10^5 pfu of HSV-1 strain 17syn+. Eyes were swabbed daily for 4 days and assayed for infectious virus by standard plaque assay.
# The antiviral efficacy of compound Ia was further investigated in an in vivo mouse model. In order to assess the efficacy of Ia against an acute infection go HSV-1 in vivo, ND4 Swiss mice were infected in the eyes with HSV-1 following light corneal scarification. At the same time that the virus was applied, one group of mice (n=10) were treated with 2 uL of a 50 μM solution of R799 in DMSO and the other group (n=10) were treated with 2 uL DMSO (vehicle), applied to the eyes. The eyes were treated with either vehicle or Ia each day for 4 days. In order to assess the effect of Ia on the course of the infection, the eyes were swabbed daily with a Dacron swab, and the virus eluted in MEM medium. The swab eluate was assessed for the presence of infectious virus by standard plaque assay on rabbit skin cell monolayers.
# [11] = system: 9001 and 01SD brain organoids; experiment: Organoid viability, calcein AM assay; format: cell-based, human; conditions: without HSV-1 infection; concentrations up to 50 μM
# Method: (A) Sixteen-week old 9001 and 01SD brain organoids were infected individually with HSV-1 DualF construct (6000 pfu/organoid). After 2 hours the inocula were removed and Ia was added to varying concentrations (100 nM-[…]). The IC50 was estimated by determining the corrected total cell fluorescence (CTCF) obtained by measuring EGFP fluorescence in organoids using ImageJ and normalizing for background using equation CTCF=integrated density−(area of the organoid x mean fluorescence of background readings). (b) Cytotoxicity of compound Ia without HSV-1 infection was assessed using calcein-AM. The fluorescence of calcein-AM in each organoid was measured and CTCF was determined as described above. The data represent an average of six independent experiments. Error bars represent standard deviations. No significant difference were found between conditions. […]
# Organoids viability was analyzing using calcein AM assay (BioLegend; catalogue #425201), according to manufacturer's instructions. […] After incubation, fluorescence signals were recorded using a LEICA DMIL LED Fluorescent microscope through a 0.16NA 4x air objective.
# The corrected total cell fluorescence (CTCF) was obtained by measuring EGFP fluorescence in 799-treated and untreated organoids, and normalizing for whole organoid area using equation CTCF=integrated density−(whole organoid area x mean fluorescence of background readings).
smiles,measurement,setting,value
"O=C1N[C@H]2[C@H](O)[C@H](O)[C@@H](O)C[C@@H]2c2cc3c(cc21)OCO3 (relative stereo) [Compound 2b, trans-dihydrolycoricidine, reference compound]",toxicity in comparison to acyclovir,[1],lower toxicity
same,HSV-1 reactivation from latency,HSV-1 [2],prevents HSV-1 reactivation from latency
same,EIF2 signaling pathway z score,[3],−2.857
same,reduction of the percentage of EGFP+-RFP+ cells,HSV-1 [4]; 01SD NPCs,8016 fold
same,reduction of the percentage of EGFP+-RFP+ cells,HSV-1 [4]; 9001 NPCs,424 fold
same,IC50,"SARS-CoV2; SARS-CoV2 in Calu3 cells, assessed at NIH, read-out: IC50",180 nM
same,concentration from which a reduction in cell viability was observed,01SD NPC cultures,≥ 25 µM
same,inhibition of HSV-1 replication compared with acyclovir,HSV-1 [5],more efficaciously than acyclovir
same,fraction of expressed genes significantly altered,02SF NPCs,62.5%
same,number of genes whose expression was significantly altered,02SF NPCs,"7,766"
same,CC,[6],3.48 µM
same,anti-HSV-1 activity (expression of EGFP and RFP reporter genes),HSV-1 [7],no expression of EGFP and RFP reporter genes
same,eIF2α~P immunoreactivity,[8],increased eIF2α˜P immunoreactivity
same,toxicity in comparison to acyclovir,[9],Slightly higher toxicity
"Nc1nc2c(ncn2COCCO)c(=O)[nH]1 [ACV, acyclovir, reference compound]",antiviral efficacy of ACV compared with Ia,"HSV-1 [4]; 01SD NPCs, p=0.0208",inferior to Ia
same,antiviral efficacy of ACV compared with Ia,"HSV-1 [4]; 9001 NPCs, p=0.3597",comparable
O=C1NC2C(CC(O)C(O)C2O)c2cc3c(cc21)OCO3 (stereo not drawn) [C3-epimer of 2b],antiviral activity,[10],totally devoid of antiviral activity
"COc1ccc2c(c1)[C@H]1C[C@H](O)[C@@H](O)[C@@H](O)[C@@H]1NC2=O [Compound 5, (2S,3R,4S,4aR,10bR)-2,3,4-Trihydroxy-9-methoxy-1,3,4,4a,5,10b-hexahydrophenanthridin-6(2H)-one]",anti-HSV-1 activity,HSV-1 [4],no anti-HSV-1 activity
same,solubility in DMSO,Solubility in DMSO,incompletely soluble in DMSO
"O=C1N[C@H]2[C@H](O)[C@H](O)[C@@H](O)C[C@@H]2c2cc(O)ccc21 [Compound 6, (2S,3R,4S,4aR,10bR)-2,3,4,9-Tetrahydroxy-1,3,4,4a,5,10b-hexahydrophenanthridin-6(2H)-one]",anti-HSV-1 activity,HSV-1 [4],no anti-HSV-1 activity
same,fraction of expressed genes significantly altered,02SF NPCs,2.1%
same,number of genes whose expression was significantly altered,02SF NPCs,256
same,anti-HSV-1 activity (expression of EGFP and RFP reporter genes),HSV-1 [7],no anti-HSV-1 activity
"COc1cccc2c1C(=O)N[C@H]1[C@H](O)[C@H](O)[C@@H](O)C[C@H]21 [Compound 7, (2S,3R,4S,4aR,10bR)-2,3,4-Trihydroxy-7-methoxy-1,3,4,4a,5,10b-hexahydrophenanthridin-6(2H)-one]",anti-HSV-1 activity,HSV-1 [4],no anti-HSV-1 activity
same,fraction of expressed genes significantly altered,02SF NPCs,0.3%
same,number of genes whose expression was significantly altered,02SF NPCs,33
same,anti-HSV-1 activity (expression of EGFP and RFP reporter genes),HSV-1 [7],no anti-HSV-1 activity
"O=C1N[C@H]2[C@H](O)[C@H](O)[C@@H](O)C[C@@H]2c2cccc(O)c21 [Compound Ia, (2S,3R,4S,4aR,10bR)-2,3,4,7-Tetrahydroxy-1,3,4,4a,5,10b-hexahydrophenanthridin-6(2H)-one]",EIF2 signaling pathway z score,[3],−1.763
same,reduction of the percentage of EGFP+-RFP+ cells,HSV-1 [4]; 01SD NPCs,6.76 fold
same,reduction of the percentage of EGFP+-RFP+ cells,HSV-1 [4]; 9001 NPCs,4.65 fold
same,therapeutic selectivity,"SARS-CoV2; CC / IC50, SARS-CoV2 in Calu3 cells",20
same,IC50,"SARS-CoV2; Severe acute respiratory syndrome coronavirus 2, Calu-3",90 nM
same,cell viability of treated cultures,"01SD NPC cultures; concentrations up to 50 μM, ACV and Ia compared",comparable
same,fraction of expressed genes significantly altered,02SF NPCs,59.8%
same,number of genes whose expression was significantly altered,02SF NPCs,"7,433"
same,CC,[6],1.92 µM
same,anti-HSV-1 activity (expression of EGFP and RFP reporter genes),HSV-1 [7],no expression of EGFP and RFP reporter genes; also recorded: comparable to 2b and ACV
same,yield of infectious virus in the tears (HSV-1 shedding) compared to vehicle,"HSV-1 strain 17syn+; 2 uL of 50 μM solution in DMSO to the eyes daily for 4 days, n=10",dramatically reduced the yield of infectious virus; also recorded: dramatically reduces HSV-1 shedding
same,reduction of peak titer of infectious virus versus vehicle,HSV-1 strain 17syn+; 2 uL of 50 μM solution topically daily,~3 fold
same,delay of peak titer of infectious virus versus vehicle,"HSV-1 strain 17syn+; 2 uL of 50 μM solution topically daily, vehicle peak at day 2 post-infection",one
same,eIF2α~P immunoreactivity,[8],increased eIF2α˜P immunoreactivity
same,organoid viability (calcein AM),[11],No significant reduction in organoid viability
